Measured values from patent publication EP4592286A1, “MACROCYCLIC NITROGEN-CONTAINING CROWN ETHER COMPOUND AND USE THEREOF AS PROTEIN KINASE INHIBITOR” (Artivila Biopharma, priority 2022, dated 2024).
pIC50: −log10 of the molar value. ≈ marks a conversion by molar mass, not a printed value.

Columns and labels:
[1] = target: T1, endogenous phosphorylated LRRK2 (S935) (Homo sapiens, UniProt Q5S007); test: detection of endogenous phosphorylated LRRK2 (S935) in A549 cells (Western blot); assay type: cell-based; conditions: at 2 µM, LRRK2 (S935) activity in A549 cells, 15 hours; read-out: Inhibition rate
T1 construct: Detection of endogenous phosphorylated LRRK2 (S935) in A549 cells; endogenous in cells; host or cells: A549
Description: Detection of endogenous phosphorylated LRRK2 (S935) in A549 cells
A549 cells were resuspended in serum-free 1640 medium at a density of 1×10^6 cells/ml, and inoculated into a 6-well plate at 1 ml/well, and cultured at 37°C and 5% CO2 for 6-8 hours. 1 microliter of compound solution in DMSO or DMSO (volume ratio of 0.1%) was added, mixed evenly, and cultivated at 37°C and 5% CO2 for 15 hours. Cells were collected, 50 microliters of RIPA III lysis solution were added to each sample to lyse cells on ice for 15 minutes, centrifuged at 4°C and 13000 rpm for 30 minutes, the supernatant was collected, the protein concentration of cell lysis solution was measured by BCA, and the protein concentrations of all samples were normalized. 5×sample loading buffer were added and kept at 95°C for 10 minutes. The content of phosphorylated S935 of endogenous LRRK2 was detected by Western blot, using antibody against phosphorylated LRRK2 (S935) (Abcam#133450). The signal intensity of phosphorylated LRRK2 (S935) was counted by Image J, the signal of phosphorylated LRRK2 (S935) in a sample was normalized by β-actin, and the data was analyzed.

[2] = target: T2, LRRK2 (Homo sapiens, UniProt Q5S007); test: experiment of inhibiting LRRK2 kinase activity (ADP-Glo method); assay type: biochemical; conditions: Table 4
Description: The inhibitory effect of the compounds on the activity of LRRK2 kinase was detected by ADP-Glo method. The diluted solutions of the compounds were transfered to a 384-well plate (784075, Greiner), the plate was sealed and centrifuged at a speed of 1000 g for 1 minute. A kinase solution at 2-fold final concentration was prepared with 1×kinase buffer, 2.5 µl of the kinase solution with 2-fold final concentration was added to the wells, the plate was centrifuged at 1000 g for 30 seconds, and left at room temperature for 10 minutes. A mixed solution of ATP and kinase substrate at 2-fold final concentration was prepared with 1×kinase buffer, and 2.5 µL of mixed solution of ATP and substrate at 2-fold final concentration was added to start the reaction. The plate was centrifuged at 1000 g for 30 seconds, sealed and left at room temperature for 2 hours. 4 µL of ADP-Glo reagent was added and incubated at room temperature for 40 minutes; 8 µL kinase detection reagent was added and incubated at room temperature for another 40 minutes. The luminescence signal value was detected on Envision 2104 microplate reader. The conversion inhibition rate%=100-(compound signal value-positive control signal value)/(blank control signal value-positive control signal value)×100.
The IC50 was calculated with GraphPad 6.0 and the dose-responsive curve of the compounds was plotted as follows: y=Bottom+(Top-Bottom)/(1+10^((logic50-x)×hillslope)), where x was logarithm of inhibitor concentration; and y was % inhibition rate.

[3] = measurement of the solubility of compounds in water and diluted hydrochloric acid; assay type: physicochemical; conditions: thermodynamic from solid; for solubility at 1 h: simulated gastric fluid, diluted hydrochloric acid solution A (pH-1.5), room temperature; for solubility: ultrapure water (pH-6), room temperature overnight
Description: Example 117: measurement of the solubility of compounds in water and diluted hydrochloric acid
The compounds were dissolved in acetonitrile (LCMS pure) and prepared into standard samples having the concentration gradient of 1000 µg/mL, 500 µg/mL, 250 µg/mL, 125 µg/mL, 62.5 µg/mL, and 31.25 µg/mL.
(§1) About 1.0 mg of the powder of the compound to be tested was weighed and added to 0.3 mL of ultrapure water (pH-6), the resulting mixture was shaked thoroughly at room temperature overnight and centrifuged, and the supernatant was taken and diluted 10 times with acetonitrile. The sample was analyzed after mixing evenly.
as §1, with “153.8 µL of 6 M HCl was pipetted, 20 mL of water was added, and mixed evenly to prepare diluted hydrochloric acid solution A (pH-1.5). About” for “About”, “diluted hydrochloric acid solution A,” for “ultrapure water (pH-6),”, “for 1 hour” for “overnight”
The standard sample and the sample to be tested were analyzed by Shimadzu LCMS-2020, where chromatographic column was Skim-psck GIST 5 µm C18 2.1*[…]; mobile phase A was water and mobile phase B was methanol; and flow rate was 0.3 mL/min. The gradient of B was as the following: 0 min: 10%; 0-1.0 min: 10%; 1.0-2.5 min: 95%; 3.0-4.0 min: 95%; 4.0-4.1 min: 10%; 4.1-6.0 min: 10%.
The relationship between the concentration and peak area of the standard sample was ploted into a standard curve, and the concentration of the sample to be tested was calibrated using this standard curve. Compound solubility = concentration of the sample to be tested × 10 [formula]

[4] = target: JAK2 (Homo sapiens, UniProt O60674); test: experiment of inhibiting kinase activity (Caliper mobility shift assay), JAK2; assay type: biochemical; conditions: read-out: inhibition rate JAK2; for inhibition at 0.01 µM: at 10 nM
Summary of the method: (§2)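 Compounds were tested at 10 nM and 100 nM, or as 10-point 3-fold dilutions from 10 µM, in replicate wells. Kinase was preincubated with compound for 10 min at room temperature before ATP/substrate addition. Substrate conversion was read by mobility shift, and IC50 was fitted by a variable-slope log(inhibitor) vs response model.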

[5] = target: JAK1 (Homo sapiens, UniProt P23458); test: experiment of inhibiting kinase activity (Caliper mobility shift assay), JAK1; assay type: biochemical; conditions: read-out: inhibition rate JAK1
Summary of the method: as §2

[6] = target: T3, JAK3 (Homo sapiens, UniProt P52333); test: experiment of inhibiting kinase activity (Caliper mobility shift assay), JAK3; assay type: biochemical; conditions: read-out: inhibition rate JAK3; for inhibition at 0.01 µM: at 10 nM
T3 sequence (P52333 1-1124): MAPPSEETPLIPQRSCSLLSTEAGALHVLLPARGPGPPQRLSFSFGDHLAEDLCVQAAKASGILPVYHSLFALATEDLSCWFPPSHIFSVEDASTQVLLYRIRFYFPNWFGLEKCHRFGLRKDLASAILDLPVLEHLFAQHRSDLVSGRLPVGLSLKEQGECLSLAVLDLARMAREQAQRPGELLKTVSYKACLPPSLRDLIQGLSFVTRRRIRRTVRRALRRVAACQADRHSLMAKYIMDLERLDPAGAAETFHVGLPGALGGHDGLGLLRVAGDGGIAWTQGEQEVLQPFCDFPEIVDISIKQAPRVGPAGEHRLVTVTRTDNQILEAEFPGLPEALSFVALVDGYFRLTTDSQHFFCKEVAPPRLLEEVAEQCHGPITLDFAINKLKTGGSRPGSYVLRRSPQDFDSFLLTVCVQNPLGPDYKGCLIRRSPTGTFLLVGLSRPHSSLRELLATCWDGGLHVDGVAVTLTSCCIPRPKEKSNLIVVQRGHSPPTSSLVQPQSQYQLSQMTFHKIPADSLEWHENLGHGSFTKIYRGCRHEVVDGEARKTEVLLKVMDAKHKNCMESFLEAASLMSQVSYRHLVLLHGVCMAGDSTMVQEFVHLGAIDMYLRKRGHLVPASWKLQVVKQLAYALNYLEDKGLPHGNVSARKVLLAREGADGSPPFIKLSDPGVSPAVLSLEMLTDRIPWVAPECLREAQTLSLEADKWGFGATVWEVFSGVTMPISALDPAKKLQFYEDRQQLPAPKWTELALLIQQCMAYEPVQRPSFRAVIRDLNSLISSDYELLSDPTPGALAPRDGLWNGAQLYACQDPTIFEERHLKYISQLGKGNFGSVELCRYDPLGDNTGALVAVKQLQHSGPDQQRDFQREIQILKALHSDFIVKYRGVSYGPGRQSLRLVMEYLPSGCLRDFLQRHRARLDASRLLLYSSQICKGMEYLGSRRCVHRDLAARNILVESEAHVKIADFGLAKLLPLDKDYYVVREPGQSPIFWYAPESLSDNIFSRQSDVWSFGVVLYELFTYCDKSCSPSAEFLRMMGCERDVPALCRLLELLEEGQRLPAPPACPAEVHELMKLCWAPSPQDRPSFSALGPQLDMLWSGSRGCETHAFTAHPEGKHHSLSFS
Summary of the method: as §2

[7] = target: T2, LRRK2; test: experiment of inhibiting kinase activity, LRRK2; assay type: biochemical; conditions: read-out: inhibition rate LRRK2; for inhibition at 0.01 µM: at 10 nM
Description: (§3) The inhibition rates of tested compounds on JAK1, JAK2, JAK3, TYK2, CDK7, CDK9, EGFR (T790M) and LRRK2 kinases were measured. The test concentrations of the compounds were 10 nM and 100 nM, and the detection was performed by replicate wells. Alternatively, compounds were 3-fold serial diluted from 10 µM for 10 concentrations in replicate wells.

[8] = target: TYK2 (Homo sapiens, UniProt P29597); test: experiment of inhibiting kinase activity, TYK2; assay type: biochemical; conditions: read-out: inhibition rate TYK2
Description: as §3

[9] = target: CDK9 (Homo sapiens, UniProt P50750); test: experiment of inhibiting kinase activity (Caliper mobility shift assay), CDK9; assay type: biochemical; conditions: at 100 nM; read-out: inhibition rate CDK9
Description: as §3
The inhibitory effects of the compounds on JAK1, JAK2, JAK3, CDK7 and CDK9 kinases were detected by the method of Caliper mobility shift assay. 250 nL of the compound at 100-fold final concentration was transferred to a destination plate 384-well-plate by using a liquid handler Echo 550. A kinase solution at 2.5-fold final concentration was prepared with 1×kinase buffer. 10 µL of the kinase solution with 2.5-fold final concentration was added to compound wells and positive control wells; and 10 µL of 1×kinase buffer was added to negative control wells. The mixture was centrifuged at 1000 rpm for 30 seconds and then incubated at room temperature for 10 minutes. A mixed solution of ATP and kinase substrate at 5/3-fold final concentration was prepared with 1×kinase buffer, and 15 µL of the mixed solution of ATP and substrate at 5/3-fold final concentration was added to start the reaction. The 384-well plate was centrifuged at 1000 rpm for 30 seconds, shaked and mixed evenly, then incubated at room temperature for a corresponding time. 30 µL of stop solution was added to stop the kinase reaction, the mixture was centrifuged at 1000 rpm for 30 seconds, and shaked and mixed evenly. The conversion rate was read by Caliper EZ Reader. The conversion inhibition rate%=(average positive control conversion rate%-sample conversion rate%)/(average positive control conversion rate%-average negative control conversion rate%). Where negative control wells represent the conversion readings of the background well of kinase buffer; and positive control wells represent the conversion readings of wells without compound inhibition. With the log value of concentration as the x axis and the percentage inhibition rate as the y axis, the dose-response curve was fitted by the log (inhibitor) vs. response-variable slope of the analyzing softwar GraphPad Prism 5, and the IC50 values of each compound on enzyme activity were obtained. Calculation formula is as follows: y=Bottom+(Top-Bottom)/(1+10^((LogIC50-x)×hillslope)), where x is logarithm of inhibitor concentration; and Y is % inhibition rate.

[10] = target: CDK7 (Homo sapiens, UniProt P50613); test: experiment of inhibiting kinase activity (Caliper mobility shift assay), CDK7; assay type: biochemical; conditions: read-out: inhibition rate CDK7
Summary of the method: as §2

T2 sequence (Q5S007 whole entry): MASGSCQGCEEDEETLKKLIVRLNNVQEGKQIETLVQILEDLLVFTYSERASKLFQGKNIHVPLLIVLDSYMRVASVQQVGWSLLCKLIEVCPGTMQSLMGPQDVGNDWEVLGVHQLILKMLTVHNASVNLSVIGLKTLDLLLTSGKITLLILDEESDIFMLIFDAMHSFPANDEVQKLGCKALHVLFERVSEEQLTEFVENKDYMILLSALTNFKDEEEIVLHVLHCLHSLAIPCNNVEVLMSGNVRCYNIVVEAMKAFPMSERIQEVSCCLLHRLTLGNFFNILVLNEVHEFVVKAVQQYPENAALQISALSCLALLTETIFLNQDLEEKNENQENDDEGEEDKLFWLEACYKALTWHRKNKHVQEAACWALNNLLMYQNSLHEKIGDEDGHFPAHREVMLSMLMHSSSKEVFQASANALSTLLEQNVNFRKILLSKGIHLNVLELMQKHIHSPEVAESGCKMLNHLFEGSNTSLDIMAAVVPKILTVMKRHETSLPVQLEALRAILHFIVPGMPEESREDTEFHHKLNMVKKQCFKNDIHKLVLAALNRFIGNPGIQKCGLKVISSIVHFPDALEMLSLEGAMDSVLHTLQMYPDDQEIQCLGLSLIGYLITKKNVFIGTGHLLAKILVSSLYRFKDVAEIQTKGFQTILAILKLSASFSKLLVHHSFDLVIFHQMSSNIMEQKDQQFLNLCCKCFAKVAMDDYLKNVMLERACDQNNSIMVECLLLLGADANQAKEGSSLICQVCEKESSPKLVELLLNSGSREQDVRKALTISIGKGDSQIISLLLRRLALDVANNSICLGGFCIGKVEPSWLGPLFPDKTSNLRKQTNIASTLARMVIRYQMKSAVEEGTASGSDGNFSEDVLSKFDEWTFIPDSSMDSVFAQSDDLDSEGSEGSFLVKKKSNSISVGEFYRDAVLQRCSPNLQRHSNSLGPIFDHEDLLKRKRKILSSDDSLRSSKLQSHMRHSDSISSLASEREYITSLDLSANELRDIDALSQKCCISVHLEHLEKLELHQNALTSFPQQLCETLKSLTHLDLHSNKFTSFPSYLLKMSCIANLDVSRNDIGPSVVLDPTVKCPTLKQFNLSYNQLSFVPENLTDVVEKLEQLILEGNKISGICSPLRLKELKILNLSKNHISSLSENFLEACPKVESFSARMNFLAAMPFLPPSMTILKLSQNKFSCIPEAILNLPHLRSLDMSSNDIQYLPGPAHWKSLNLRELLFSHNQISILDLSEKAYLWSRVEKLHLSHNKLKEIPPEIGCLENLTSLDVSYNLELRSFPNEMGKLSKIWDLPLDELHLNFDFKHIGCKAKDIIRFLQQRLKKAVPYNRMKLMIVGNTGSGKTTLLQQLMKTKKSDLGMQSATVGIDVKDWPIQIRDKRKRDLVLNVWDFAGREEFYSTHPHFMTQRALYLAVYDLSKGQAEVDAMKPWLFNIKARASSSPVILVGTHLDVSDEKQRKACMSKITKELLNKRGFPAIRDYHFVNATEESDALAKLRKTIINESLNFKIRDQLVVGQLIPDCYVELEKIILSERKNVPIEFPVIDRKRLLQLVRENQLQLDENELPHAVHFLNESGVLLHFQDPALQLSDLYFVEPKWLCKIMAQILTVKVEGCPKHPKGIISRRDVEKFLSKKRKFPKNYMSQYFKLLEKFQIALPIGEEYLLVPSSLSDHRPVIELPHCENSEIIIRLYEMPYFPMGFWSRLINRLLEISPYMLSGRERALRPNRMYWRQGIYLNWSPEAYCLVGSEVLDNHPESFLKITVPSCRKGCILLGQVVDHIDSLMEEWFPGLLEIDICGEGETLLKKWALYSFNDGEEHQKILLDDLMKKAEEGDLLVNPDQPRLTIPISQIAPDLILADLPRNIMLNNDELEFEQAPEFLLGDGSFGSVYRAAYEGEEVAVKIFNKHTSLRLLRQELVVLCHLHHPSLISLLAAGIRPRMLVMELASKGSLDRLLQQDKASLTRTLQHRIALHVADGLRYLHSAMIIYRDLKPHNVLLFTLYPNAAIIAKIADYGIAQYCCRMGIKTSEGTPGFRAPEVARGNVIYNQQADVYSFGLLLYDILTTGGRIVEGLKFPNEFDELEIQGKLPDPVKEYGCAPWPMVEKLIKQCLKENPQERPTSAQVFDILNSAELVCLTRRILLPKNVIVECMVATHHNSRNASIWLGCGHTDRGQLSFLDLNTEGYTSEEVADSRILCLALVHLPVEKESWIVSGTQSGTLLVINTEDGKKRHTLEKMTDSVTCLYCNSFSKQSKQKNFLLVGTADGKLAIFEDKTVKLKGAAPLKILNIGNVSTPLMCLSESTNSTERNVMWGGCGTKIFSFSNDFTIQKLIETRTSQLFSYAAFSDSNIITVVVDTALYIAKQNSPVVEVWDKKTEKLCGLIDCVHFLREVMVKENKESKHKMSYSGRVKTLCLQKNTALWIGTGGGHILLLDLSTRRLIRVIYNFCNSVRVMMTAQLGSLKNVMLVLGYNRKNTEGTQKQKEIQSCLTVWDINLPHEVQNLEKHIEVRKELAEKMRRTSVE
Chain of JAK2 (O60674 whole entry): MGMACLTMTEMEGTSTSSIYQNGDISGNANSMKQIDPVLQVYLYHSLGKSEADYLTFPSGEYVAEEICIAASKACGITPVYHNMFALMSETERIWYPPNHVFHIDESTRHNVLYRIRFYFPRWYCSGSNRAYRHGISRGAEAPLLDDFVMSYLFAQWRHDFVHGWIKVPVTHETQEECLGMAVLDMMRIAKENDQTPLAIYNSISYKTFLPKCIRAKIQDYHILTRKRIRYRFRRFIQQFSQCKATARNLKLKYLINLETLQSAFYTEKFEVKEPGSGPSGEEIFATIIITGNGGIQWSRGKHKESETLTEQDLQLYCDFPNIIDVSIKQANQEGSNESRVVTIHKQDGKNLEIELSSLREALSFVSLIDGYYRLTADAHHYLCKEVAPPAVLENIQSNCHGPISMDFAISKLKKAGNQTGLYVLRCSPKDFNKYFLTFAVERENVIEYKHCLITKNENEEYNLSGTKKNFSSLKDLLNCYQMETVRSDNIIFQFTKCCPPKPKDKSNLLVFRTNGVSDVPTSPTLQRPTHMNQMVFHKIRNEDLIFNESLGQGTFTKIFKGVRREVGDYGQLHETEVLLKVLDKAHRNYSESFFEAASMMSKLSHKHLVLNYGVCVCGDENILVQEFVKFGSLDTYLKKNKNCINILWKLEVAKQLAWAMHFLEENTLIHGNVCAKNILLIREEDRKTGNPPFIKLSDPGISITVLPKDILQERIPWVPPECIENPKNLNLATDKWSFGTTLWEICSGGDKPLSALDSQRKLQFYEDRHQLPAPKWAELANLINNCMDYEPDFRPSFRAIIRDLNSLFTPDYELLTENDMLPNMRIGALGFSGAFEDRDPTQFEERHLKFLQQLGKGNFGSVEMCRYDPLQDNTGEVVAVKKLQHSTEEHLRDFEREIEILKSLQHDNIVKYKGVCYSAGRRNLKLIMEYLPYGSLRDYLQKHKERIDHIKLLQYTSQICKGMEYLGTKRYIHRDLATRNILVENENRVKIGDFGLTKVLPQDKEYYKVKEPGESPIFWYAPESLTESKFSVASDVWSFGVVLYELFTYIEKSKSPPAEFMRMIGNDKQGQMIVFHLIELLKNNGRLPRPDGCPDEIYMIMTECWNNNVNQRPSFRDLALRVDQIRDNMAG
Chain of TYK2 (P29597 whole entry): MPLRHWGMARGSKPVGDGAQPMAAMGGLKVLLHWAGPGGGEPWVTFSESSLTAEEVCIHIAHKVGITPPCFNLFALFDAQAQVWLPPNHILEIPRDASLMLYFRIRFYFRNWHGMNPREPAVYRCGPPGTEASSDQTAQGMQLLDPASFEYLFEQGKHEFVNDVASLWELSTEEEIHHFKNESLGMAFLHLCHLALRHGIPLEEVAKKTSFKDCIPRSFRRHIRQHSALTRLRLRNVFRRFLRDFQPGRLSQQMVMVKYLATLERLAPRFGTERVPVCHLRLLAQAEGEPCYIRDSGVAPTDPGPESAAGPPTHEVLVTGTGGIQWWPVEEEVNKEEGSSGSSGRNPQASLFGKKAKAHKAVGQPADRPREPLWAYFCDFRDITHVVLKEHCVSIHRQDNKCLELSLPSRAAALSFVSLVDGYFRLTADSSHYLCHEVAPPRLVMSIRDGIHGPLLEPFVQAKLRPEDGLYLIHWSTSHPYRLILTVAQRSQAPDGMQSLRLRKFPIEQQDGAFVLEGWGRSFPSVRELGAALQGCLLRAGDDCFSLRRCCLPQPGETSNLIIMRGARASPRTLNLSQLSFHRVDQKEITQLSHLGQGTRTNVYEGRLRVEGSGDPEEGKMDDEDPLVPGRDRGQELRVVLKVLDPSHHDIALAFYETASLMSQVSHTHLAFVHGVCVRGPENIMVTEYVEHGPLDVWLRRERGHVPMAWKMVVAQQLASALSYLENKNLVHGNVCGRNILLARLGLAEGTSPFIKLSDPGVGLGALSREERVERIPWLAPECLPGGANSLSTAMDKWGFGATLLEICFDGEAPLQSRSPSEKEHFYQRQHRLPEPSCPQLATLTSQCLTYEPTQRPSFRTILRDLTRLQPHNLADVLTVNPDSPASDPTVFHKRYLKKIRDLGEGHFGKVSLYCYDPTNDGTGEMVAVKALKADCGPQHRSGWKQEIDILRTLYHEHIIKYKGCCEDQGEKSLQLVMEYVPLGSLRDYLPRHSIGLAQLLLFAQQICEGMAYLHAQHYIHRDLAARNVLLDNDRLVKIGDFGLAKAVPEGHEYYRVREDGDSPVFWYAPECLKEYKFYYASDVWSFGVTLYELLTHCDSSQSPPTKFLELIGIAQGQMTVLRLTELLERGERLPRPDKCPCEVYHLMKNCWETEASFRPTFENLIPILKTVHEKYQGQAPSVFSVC
T1 sequence (Q5S007 whole entry): as the sequence (Q5S007 whole entry) above

Row | inhibition at 2 µM [1] | pIC50 [2] | solubility at 1 h [3] | solubility [3] | inhibition at 0.01 µM [4] | inhibition at 0.01 µM ([5]; at 10 nM) | inhibition at 0.01 µM [6] | inhibition at 0.01 µM [7] | inhibition at 0.01 µM ([8]; at 10 nM) | inhibition at 0.1 µM ([4]; at 100 nM) | inhibition at 0.1 µM ([5]; at 100 nM) | inhibition at 0.1 µM ([6]; at 100 nM) | inhibition at 0.1 µM [9] | inhibition at 0.1 µM ([7]; at 100 nM) | inhibition at 0.01 µM ([10]; at 10 nM) | inhibition at 0.1 µM ([10]; at 100 nM) | inhibition at 0.1 µM ([8]; at 100 nM) | Compound
1 | > 80% | > 7.00 | > 3770 µg/mL | 680 µg/mL (≈ 1290 µM) |  |  |  |  |  |  |  |  |  |  |  |  |  | CN1CCOCCOc2ccc(Nc3ncc(C(F)(F)F)c(O[C@H]4CC[C@@](C)(O)CC4)n3)cc2OCC1 [Example 7, (1s,4s)-1-methyl-4-((2-((7-methyl-2,3,6,7,8,9-hexahydro-5H-benzo[b][1,4,7]trioxa[10]azacyclododecan-12-yl)amino)-5-(trifluoromethyl)pyrimidin-4-yl)oxy)cyclohexan-1-ol]
2 |  |  | > 3500 µg/mL | 120 µg/mL (≈ 216 µM) | > 80% | > 80% | > 80% | > 80% | > 80% |  |  |  |  |  |  |  |  | CN1CCOCCOc2cc(Nc3nc(-c4cnn([C@@H](CC#N)C5CCCC5)c4)c4cc[nH]c4n3)ccc2OCC1 [Example 75, (S)-3-cyclopentyl-3-(4-(2-((7-methyl-2,3,6,7,8,9-hexahydro-5H-benzo[b][1,4,7]trioxa[10]azacyclododecan-13-yl)amino)-7H-pyrrolo[2,3-d]pyrimidin-4-yl)-1H-pyrazol-1-yl) propionitrile]
3 |  | > 7.00 | > 3830 µg/mL | 688 µg/mL (≈ 1450 µM) |  |  |  |  |  |  |  |  |  |  |  |  |  | CN1CCOc2ccc(Nc3ncc(C(F)(F)F)c(NCCP(C)(C)=O)n3)cc2OCC1 [Example 86, dimethyl(2-((2-((4-methyl-3,4,5,6-tetrahydro-2H-benzo[b][1,4,7]dioxazolin-9-yl)amino)-5-(trifluoromethyl)pyrimidin-4-yl)amino)ethyl)phosphine oxide]
4 |  |  | > 4330 µg/mL | 180 µg/mL (≈ 326 µM) | > 80% |  | 40 to 79% | > 80% |  | > 80% | 40 to 79% | > 80% | 40 to 79% | > 80% | 40 to 79% | > 80% | 40 to 79% | CC(C)S(=O)(=O)c1ccccc1Nc1nc(Nc2ccc3c(c2)OCCOCCNCCO3)nc2[nH]ccc12 [Example 97, N^2-(2,3,6,7,8,9-hexahydro-5H-benzo[b][1,4,7]trioxa[10]azacyclododecan-13-yl)-N^4-(2-(isopropylsulfonyl)phenyl)-7H-pyrrolo[2,3-d]pyrimidin-2,4-diamine]
